Test results published in patent publication US8178658B2 (Dow AgroSciences, LLC, priority 2008, dated 2012).

Assays:
[1] = system: beet armyworm (BAW; Spodoptera exigua: Lepidoptera); experiment: 96-well microtiter plate-based high throughput (HTS) diet bioassay on beet armyworm (BAW HTS); type: in vivo; conditions: BAW eggs, 12 μg test compound per well, mortality at 6 d post-treatment, mortality class
Summary of the method: (§1)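 Spodoptera exigua eggs on artificial diet in 96-well plates, surface-treated with 12 μg compound in DMSO-acetone-water; dark, 29° C, mortality at 6 d, six replicates. 128-well trays: second-instar larvae on diet treated at 50 μg/cm^2, 25° C, 14:10 light-dark, six days, mortality averaged over eight wells.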

[2] = system: beet armyworm (BAW; Spodoptera exigua: Lepidoptera); experiment: 128-well diet tray assay on beet armyworm (BAW 50); type: in vivo; conditions: 128-well diet tray assay; 50 μg/cm^2 of test compound on diet; second instar BAW larvae; mortality class
Summary of the method: as §1

[3] = 96-well microtiter plate HTS diet assay

Structure (SMILES)	BAW HTS ([1]; 96-well HTS diet bioassay)	BAW HTS [1, 3]	BAW 50 ug/cm2 [2]
COC1C(C)OC(ON=Cc2ccc(-c3cn(-c4ccc(Cl)cc4)cn3)cc2)C(OC)C1OC (stereo not drawn) [Compound 43]	B (either (1) the compound was tested and less than 50 percent mortality was observed or (2) the compound was not tested)	B (either (1) the compound was tested and less than 50 percent mortality was observed or (2) the compound was not tested)	A (the compound was tested and at least 50 percent mortality was observed)
COc1ccc(-n2cnc(-c3ccc(C=NOC4OC(C)C(OC)C(OC)C4OC)cc3)c2)cc1 (stereo not drawn) [Compound 44]	B (either (1) the compound was tested and less than 50 percent mortality was observed or (2) the compound was not tested)	B (either (1) the compound was tested and less than 50 percent mortality was observed or (2) the compound was not tested)	A (the compound was tested and at least 50 percent mortality was observed)
COC1C(C)OC(ON=Cc2ccc(-c3cn(-c4ccc(Br)cc4)cn3)cc2)C(OC)C1OC (stereo not drawn) [Compound 45]	B (either (1) the compound was tested and less than 50 percent mortality was observed or (2) the compound was not tested)	B (either (1) the compound was tested and less than 50 percent mortality was observed or (2) the compound was not tested)	A (the compound was tested and at least 50 percent mortality was observed)
COC1C(C)OC(ON=Cc2ccc(-c3cn(-c4ccc(C(C)C)cc4)cn3)cc2)C(OC)C1OC (stereo not drawn) [Compound 46]	B (either (1) the compound was tested and less than 50 percent mortality was observed or (2) the compound was not tested)	B (either (1) the compound was tested and less than 50 percent mortality was observed or (2) the compound was not tested)	A (the compound was tested and at least 50 percent mortality was observed)
COC1C(C)OC(ON=Cc2ccc(-c3cn(-c4ccc(I)cc4)cn3)cc2)C(OC)C1OC (stereo not drawn) [Compound 47]	B (either (1) the compound was tested and less than 50 percent mortality was observed or (2) the compound was not tested)	B (either (1) the compound was tested and less than 50 percent mortality was observed or (2) the compound was not tested)	A (the compound was tested and at least 50 percent mortality was observed)
COC1C(C)OC(ON=Cc2ccc(-c3cn(-c4ccc(C(C)(C)C)cc4)cn3)cc2)C(OC)C1OC (stereo not drawn) [Compound 48]	B (either (1) the compound was tested and less than 50 percent mortality was observed or (2) the compound was not tested)	B (either (1) the compound was tested and less than 50 percent mortality was observed or (2) the compound was not tested)	A (the compound was tested and at least 50 percent mortality was observed)
COC1C(C)OC(ON=Cc2ccc(-c3cn(-c4ccc(OC(F)(F)F)cc4)cn3)c(F)c2F)C(OC)C1OC (stereo not drawn) [Compound 49]	B (either (1) the compound was tested and less than 50 percent mortality was observed or (2) the compound was not tested)	B (either (1) the compound was tested and less than 50 percent mortality was observed or (2) the compound was not tested)	A (the compound was tested and at least 50 percent mortality was observed)
COC1C(C)OC(ON=Cc2ccc(Cl)c(-c3cn(-c4ccc(OC(F)(F)F)cc4)cn3)c2)C(OC)C1OC (stereo not drawn) [Compound 50]	A (the compound was tested and at least 50 percent mortality was observed)	A (the compound was tested and at least 50 percent mortality was observed)	A (the compound was tested and at least 50 percent mortality was observed)
